Measurements published in ChEMBL document CHEMBL4219139, “Enantiomeric trans β-aryl-δ-iodo-γ-lactones derived from 2,5-dimethylbenzaldehyde induce apoptosis in canine lymphoma cell lines by downregulation of anti-apoptotic Bcl-2 family members Bcl-xL and Bcl-2” (2018).
The source made the active and inactive calls. The rule behind the calls is not given here.

Legend:
Canis lupus familiaris [1] = species on record: Canis lupus familiaris; experiment: Cytotoxic activity against canine GL1 cells assessed as cell death after 24 hrs by propidium iodide staining-based FACS analysis; type: functional
CLBL-1 [2] = experiment: Cytotoxic activity against canine CLBL1 cells assessed as cell death after 24 hrs by propidium iodide staining-based FACS analysis; type: functional; conditions: Canis lupus familiaris
CLB70 [3] = experiment: Cytotoxic activity against canine CLB70 cells assessed as cell death after 24 hrs by propidium iodide staining-based FACS analysis; type: functional; conditions: Canis lupus familiaris
Jurkat [4] = experiment: Cytotoxic activity against human Jurkat cells assessed as cell death after 24 hrs by propidium iodide staining-based FACS analysis; type: functional
CLBL-1 [5] = experiment: Cytotoxic activity against canine CLBL1 cells assessed as cell death at 50 ug/ml after 24 hrs by propidium iodide staining-based FACS analysis; type: functional, Canis lupus familiaris
CLB70 [6] = experiment: Cytotoxic activity against canine CLB70 cells assessed as cell death at 50 ug/ml after 24 hrs by propidium iodide staining-based FACS analysis; type: functional, Canis lupus familiaris
Jurkat [7] = experiment: Cytotoxic activity against human Jurkat cells assessed as cell death at 50 ug/ml after 24 hrs by propidium iodide staining-based FACS analysis; type: functional
[8] = Cytotoxic activity against canine GL1 cells assessed as cell death at 50 ug/ml after 24 hrs by propidium iodide staining-based FACS analysis; type: functional, Canis lupus familiaris
CLBL-1 [9] = experiment: Induction of apoptosis in canine CLBL1 cells at 50 ug/ml after 24 hrs by Annexin V/FITC staining based FACS analysis; type: functional, cell-based; conditions: Canis lupus familiaris
CLB70 [10] = experiment: Induction of apoptosis in canine CLB70 cells at 50 ug/ml after 24 hrs by Annexin V/FITC staining based FACS analysis; type: functional, cell-based; conditions: Canis lupus familiaris
Canis lupus familiaris [11] = species on record: Canis lupus familiaris; experiment: Induction of apoptosis in canine GL1 cells at 50 ug/ml after 24 hrs by Annexin V/FITC staining based FACS analysis; type: functional, cell-based
Jurkat [12] = experiment: Induction of apoptosis in human Jurkat cells at 50 ug/ml after 24 hrs by Annexin V/FITC staining based FACS analysis; type: functional, cell-based
CLBL-1 [13] = experiment: Induction of apoptosis in canine CLBL1 cells assessed as activation of caspase-3/7 at 50 ug/ml after 24 hrs by flow cytometry; type: functional, Canis lupus familiaris
CLB70 [14] = experiment: Induction of apoptosis in canine CLB70 cells assessed as activation of caspase-3/7 at 50 ug/ml after 24 hrs by flow cytometry; type: functional, Canis lupus familiaris
[15] = Induction of apoptosis in canine GL1 cells assessed as activation of caspase-3/7 at 50 ug/ml after 24 hrs by flow cytometry; type: functional, Canis lupus familiaris
Jurkat [16] = experiment: Induction of apoptosis in human Jurkat cells assessed as activation of caspase-3/7 at 50 ug/ml after 24 hrs by flow cytometry; type: functional
CLBL-1 [17] = experiment: Induction of apoptosis in canine CLBL1 cells preincubated with Z-VAD-fmk pan-caspase inhibitor assessed as activation of caspase-3/7 at 50 ug/ml after 24 hrs by flow cytometry; type: functional, cell-based; conditions: Canis lupus familiaris
CLB70 [18] = experiment: Induction of apoptosis in canine CLB70 cells preincubated with Z-VAD-fmk pan-caspase inhibitor assessed as activation of caspase-3/7 at 50 ug/ml after 24 hrs by flow cytometry; type: functional, cell-based; conditions: Canis lupus familiaris
Canis lupus familiaris [19] = species on record: Canis lupus familiaris; experiment: Induction of apoptosis in canine GL1 cells preincubated with Z-VAD-fmk pan-caspase inhibitor assessed as activation of caspase-3/7 at 50 ug/ml after 24 hrs by flow cytometry; type: functional, cell-based
Jurkat [20] = experiment: Induction of apoptosis in human Jurkat cells preincubated with Z-VAD-fmk pan-caspase inhibitor assessed as activation of caspase-3/7 at 50 ug/ml after 24 hrs by flow cytometry; type: functional, cell-based
Canis lupus familiaris [21] = species on record: Canis lupus familiaris; experiment: Induction of apoptosis in canine GL1 cells assessed as downregulation of Bcl-xl expression at 25 ug/ml after 24 hrs by Western blot analysis; type: functional, cell-based
Jurkat [22] = experiment: Induction of apoptosis in human Jurkat cells assessed as downregulation of Bcl-xl expression at 25 ug/ml after 24 hrs by Western blot analysis; type: functional, cell-based
CLBL-1 [23] = experiment: Induction of apoptosis in canine CLBL1 cells assessed as downregulation of Bcl-xl expression at 50 ug/ml after 24 hrs by Western blot analysis; type: functional, cell-based; conditions: Canis lupus familiaris
CLB70 [24] = experiment: Induction of apoptosis in canine CLB70 cells assessed as downregulation of Bcl-xl expression at 50 ug/ml after 24 hrs by Western blot analysis; type: functional, cell-based; conditions: Canis lupus familiaris
Canis lupus familiaris [25] = species on record: Canis lupus familiaris; experiment: Induction of apoptosis in canine GL1 cells assessed as downregulation of Bcl-xl expression at 50 ug/ml after 24 hrs by Western blot analysis; type: functional, cell-based
Jurkat [26] = experiment: Induction of apoptosis in human Jurkat cells assessed as downregulation of Bcl-xl expression at 50 ug/ml after 24 hrs by Western blot analysis; type: functional, cell-based
CLB70 [27] = experiment: Induction of apoptosis in canine CLB70 cells assessed as cleavage of Bid at 25 to 50 ug/ml after 24 hrs by Western blot analysis; type: functional, cell-based; conditions: Canis lupus familiaris
Canis lupus familiaris [28] = species on record: Canis lupus familiaris; experiment: Induction of apoptosis in canine GL1 cells assessed as cleavage of Bid at 25 to 50 ug/ml after 24 hrs by Western blot analysis; type: functional, cell-based
Jurkat [29] = experiment: Induction of apoptosis in human Jurkat cells assessed as cleavage of Bid at 25 to 50 ug/ml after 24 hrs by Western blot analysis; type: functional, cell-based
Jurkat [30] = experiment: Induction of apoptosis in human Jurkat cells assessed as cleavage of PARP1 at 25 to 50 ug/ml after 24 hrs by Western blot analysis; type: functional, cell-based
CLBL-1 [31] = experiment: Induction of apoptosis in canine CLBL1 cells assessed as cleavage of PARP1 at 50 ug/ml after 24 hrs by Western blot analysis; type: functional, cell-based; conditions: Canis lupus familiaris
CLB70 [32] = experiment: Induction of apoptosis in canine CLB70 cells assessed as downregulation of Bcl-2 expression at 50 ug/ml after 24 hrs by Western blot analysis; type: functional, cell-based; conditions: Canis lupus familiaris
CLBL-1 [33] = experiment: Induction of apoptosis in canine CLBL1 cells assessed as downregulation of Bcl-2 expression at 50 ug/ml after 24 hrs by Western blot analysis; type: functional, cell-based; conditions: Canis lupus familiaris
Canis lupus familiaris [34] = species on record: Canis lupus familiaris; experiment: Induction of apoptosis in canine GL1 cells assessed as downregulation of Bcl-2 expression at 50 ug/ml after 24 hrs by Western blot analysis; type: functional, cell-based
Jurkat [35] = experiment: Induction of apoptosis in human Jurkat cells assessed as downregulation of Bcl-2 expression at 50 ug/ml after 24 hrs by Western blot analysis; type: functional, cell-based
CLB70 [36] = experiment: Induction of apoptosis in canine CLB70 cells assessed as cleavage of PARP1 at 25 to 50 ug/ml after 24 hrs by Western blot analysis; type: functional, cell-based; conditions: Canis lupus familiaris
CLBL-1 [37] = experiment: Induction of apoptosis in canine CLBL1 cells assessed as downregulation of Bcl-xl expression at 25 to 50 ug/ml after 24 hrs by Western blot analysis; type: functional, cell-based; conditions: Canis lupus familiaris
CLB70 [38] = experiment: Induction of apoptosis in canine CLB70 cells assessed as downregulation of Bcl-xl expression at 25 to 50 ug/ml after 24 hrs by Western blot analysis; type: functional, cell-based; conditions: Canis lupus familiaris
Canis lupus familiaris [39] = species on record: Canis lupus familiaris; experiment: Induction of apoptosis in canine GL1 cells assessed as downregulation of Bcl-xl expression at 25 to 50 ug/ml after 24 hrs by Western blot analysis; type: functional, cell-based
Jurkat [40] = experiment: Induction of apoptosis in human Jurkat cells assessed as downregulation of Bcl-xl expression at 25 to 50 ug/ml after 24 hrs by Western blot analysis; type: functional, cell-based
CLBL-1 [41] = experiment: Induction of apoptosis in canine CLBL1 cells assessed as downregulation of Bcl-2 expression at 25 to 50 ug/ml after 24 hrs by Western blot analysis; type: functional, cell-based; conditions: Canis lupus familiaris
CLB70 [42] = experiment: Induction of apoptosis in canine CLB70 cells assessed as downregulation of Bcl-2 expression at 25 to 50 ug/ml after 24 hrs by Western blot analysis; type: functional, cell-based; conditions: Canis lupus familiaris
Canis lupus familiaris [43] = species on record: Canis lupus familiaris; experiment: Induction of apoptosis in canine GL1 cells assessed as downregulation of Bcl-2 expression at 25 to 50 ug/ml after 24 hrs by Western blot analysis; type: functional, cell-based
Jurkat [44] = experiment: Induction of apoptosis in human Jurkat cells assessed as downregulation of Bcl-2 expression at 25 to 50 ug/ml after 24 hrs by Western blot analysis; type: functional, cell-based
CLBL-1 [45] = experiment: Induction of apoptosis in canine CLBL1 cells assessed as cleavage of Bid at 25 to 50 ug/ml after 24 hrs by Western blot analysis; type: functional, cell-based; conditions: Canis lupus familiaris

Row | SMILES | Activity (Canis lupus familiaris [1]) | Activity (CLBL-1 [2]) | Activity (CLB70 [3]) | Activity (Jurkat [4]) | Activity (CLBL-1 [5]) | Activity (CLB70 [6]) | Activity (Jurkat [7]) | Activity [8] | Activity (CLBL-1 [9]) | Activity (CLB70 [10]) | Activity (Canis lupus familiaris [11]) | Activity (Jurkat [12]) | Activity (CLBL-1 [13]) | Activity (CLB70 [14]) | Activity [15] | Activity (Jurkat [16]) | Activity (CLBL-1 [17]) | Activity (CLB70 [18]) | Activity (Canis lupus familiaris [19]) | Activity (Jurkat [20]) | also measured
1 | Cc1ccc(C)c([C@H]2CC(=O)O[C@@H]2[C@@H](C)I)c1 | Dose-dependent effect | Dose-dependent effect | Dose-dependent effect | Dose-dependent effect | 80% | 60% | 60% | 60% | Active | Active | Active | Active | 78.89% | 55.8% | 58.47% | 66.93% | inactive | inactive | inactive | inactive | Activity (Canis lupus familiaris [21]): inactive; Activity (Jurkat [22]): inactive; Activity (CLBL-1 [23]): inactive; Activity (CLB70 [24]): Active; Activity (Canis lupus familiaris [25]): Active; Activity (Jurkat [26]): Active; Activity (CLB70 [27]): Active; Activity (Canis lupus familiaris [28]): Active; Activity (Jurkat [29]): inactive; Activity (Jurkat [30]): Active; Activity (CLBL-1 [31]): Active; Activity (CLB70 [32]): Active; Activity (CLBL-1 [33]): inactive; Activity (Canis lupus familiaris [34]): Active; Activity (Jurkat [35]): Active; Activity (CLB70 [36]): Active
2 | Cc1ccc(C)c([C@@H]2CC(=O)O[C@H]2[C@H](C)I)c1 | Dose-dependent effect | Dose-dependent effect | Dose-dependent effect | Dose-dependent effect | 80% | 25% | 25% | 25% | Active | Active | Active | Active | 73.53% | 30.04% | 20.35% | 32.35% | inactive | inactive | inactive | inactive | Activity (CLBL-1 [37]): inactive; Activity (CLB70 [38]): Active; Activity (Canis lupus familiaris [39]): Active; Activity (Jurkat [40]): Active; Activity (CLBL-1 [41]): inactive; Activity (CLB70 [42]): Active; Activity (Canis lupus familiaris [43]): Active; Activity (Jurkat [44]): Active; Activity (Jurkat [29]): inactive; Activity (CLBL-1 [45]): Active; Activity (Jurkat [30]): Active; Activity (CLBL-1 [31]): Active; Activity (CLB70 [36]): Active
